Results from patent publication US11389424B2, “Methods and compositions for treating chemotherapy-induced diarrhea” (NAPO PHARMACEUTICALS, INC., priority 2017, dated 2022).
Where two headings read alike, the source gives them in different places.

Key:
[1] = tested on: recurrent, cutaneous mast cell tumors; conditions: cited from earlier work
[2] = 9-month toxicity study (WIL-288022), oral (capsule) administration of enteric-coated crofelemer tablets; set-up: species or system beagle dogs; conditions: dog, in vivo
Experimental: The dose for this study was based on data obtained from a pilot study that assessed the clinical effectiveness of crofelemer (SP-303) in alleviating clinical signs associated with secretory diarrhea in dogs (CANA-001) and the wide margin of safety established in 30-day (WIL-288006) and 9-month (WIL-288022) toxicity studies. Chronic safety of crofelemer in dogs was studied in a 9-month study during which tablets were administered in capsules once daily, 7 days per week, for 273 or 274 days to three groups of beagle dogs. Dosage levels were 50, 175 and 600 mg/kg/day, plus a concurrent control group. Based on the results of this study, the no-observed-adverse-effect level (NOAEL) for oral (capsule) administration of enteric-coated crofelemer tablets to dogs for 273 or 274 consecutive days was 50 mg/kg/day. […] Thus, the no effect level is estimated to be between 50 and 175 mg/kg/day.

Row | Compound | objective response (primary effectiveness endpoint) ([1]; end of the six-week masked phase, vs placebo 8%, p<0.001) | all grade diarrhea ([1]; masked phase) | grade 3-4 diarrhea ([1]; masked phase) | any grade diarrhea ([1]; masked plus open label phases) | grade 3-4 diarrhea ([1]; masked plus open label phases) | primary adverse effect at the higher dosages [2]
1 | Cc1[nH]c(/C=C2\C(=O)Nc3ccc(F)cc32)c(C)c1C(=O)NCCN1CCCC1.O=P(O)(O)O [toceranib phosphate, Toceranib phosphate] | 37% | 46% | 7% | 59% | 8% | 
2 | Crofelemer |  |  |  |  |  | gastrointestinal irritation
